From patent publication US20260274892A1, “MACROCYCLIC BROAD SPECTRUM ANTIBIOTICS” (RQx Pharmaceuticals, Inc., priority 2017, published 2026) come the findings set out here.

The test system of test [1] is Escherichia coli ATCC 25922. In words: Minimum inhibitory concentration (MIC), CLSI broth micro-dilution, E. coli. The test is classed as cell-based. As to conditions: Table 6, cation adjusted Mueller Hinton Broth + 0.002% Tween-80, 35° C. Summed up:
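Colonies grown 20 h at 35° C on Trypticase Soy agar (MRSA) or Luria agar (E. coli) were suspended in cation-adjusted Mueller Hinton broth with 0.002% Tween-80. Suspensions were added at OD600 0.0005 to 10-point twofold compound dilutions, then incubated 22 h at 35° C.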

In test [2] the test system is Methicillin Resistant Staphylococcus aureus strain USA 200. In words: Minimum inhibitory concentration (MIC), CLSI broth micro-dilution, S. aureus. The test is classed as cell-based. The conditions noted are these: Table 6, MRSA USA 200, cation adjusted Mueller Hinton Broth + 0.002% Tween-80, 35° C., 22 hours. How it is done:
In vitro antimicrobial activity of each compound was determined by measuring minimal inhibitor concentrations (MICs) using the broth micro-dilution technique as approved by the Clinical and Laboratory Standards Institute (CLSI) (Methods for Dilution Antimicrobial Susceptibility Tests for Bacteria that Grow Aerobically; Approved Standard-Eighth Edition. CLSI document M07-A8. Wayne, PA: Clinical and Laboratroy Standards; 2009). Antibacterial activity was measure against two strains of bacteria: a Methicillin Resistant Staphylococcus aureus strain USA 200, (S. aureus) and Escherichia coli ATCC 25922 (E. coli), a clinically relevant Gram-negative strain. Cells were inoculated onto plates of Trypyticase Soy Agar or Luria Agar respectively and grown at 35° C. for 20 hours. Inocula suspensions were prepared by scraping cells into 1 mL of testing media (cation adjusted Mueller Hinton Broth supplemented with 0.002% v/v Tween-80) and diluting to a final OD600nm of 0.01.
Test compounds were prepared in DMSO at a concentration of 10 mg/mL. In protocol 1, the compound stocks were diluted into testing media at a concentration of 64 µg/ml and serial 2-fold dilutions were made in the same media, in 96-well U bottom microtiter dishes, for a total of 10 compound concentrations. In protocol 2, the compound stocks were diluted into testing media at a concentration of 4 µg/mL and serial 2-fold dilutions were made in the same media, in 96-well U bottom microtiter dishes, for a total of 10 compound concentrations. In protocol 3, compound stocks were diluted into testing media at a concentration of 0.5 μg/mL, with serial 2-fold dilutions conducted as described above. In protocol 4, compound stocks were diluted into testing media at a concentration of […], with serial 2-fold dilutions conducted as described above. Inocula suspensions were added to the 2-fold serial dilutions of test compounds to a final density of GD OD600nm of 0.0005 and incubated at 35° C. for 22 hours.
A general note: In broth dilution the organism is exposed to a series of concentrations in liquid medium.

The mark [3] stands for this setting: Escherichia coli, ATCC25922, 22 h.
[4] abbreviates: Staphylococcus aureus, MRSA / USA200.

In the case of `CCCCc1ccc(-c2ncc(C(=O)N[C@@H](CCN)C(=O)N(C)[C@@H]3C(=O)N[C@@H](C)C(=O)N[C@H](C(=O)NCC#N)Cc4ccc(OCCN)c(c4)-c4cc3ccc4OCCN)c(C)n2)c(C)c1` (racemic) [Compound 223, rac-(8S,11S,14S)-3,18-bis(2-aminoethoxy)-N-(cyanomethyl)-11-methyl-14-[methyl-[rac-(2S)-4-amino-2-[[2-(4-butyl-2-methyl-phenyl)-4-methyl-pyrimidine-5-carbonyl]amino]butanoyl]amino]-10,13-dioxo-9,12-diazatricyclo[13.3.1.12,6]icosa-1(18),2(20),3,5,15(19),16-hexaene-8-carboxamide], the figures for the minimum inhibitory concentration (MIC) in test [1] (setting [3]) and in test [2] (setting [4]) were 0.26 µM and 0.016 µM, respectively.

With `Cc1nc(-c2ccc(C3(C)CC3)cc2)ncc1C(=O)N[C@@H](CCN)C(=O)N(C)[C@@H]1C(=O)N[C@@H](C)C(=O)N[C@H](C(=O)NCC#N)Cc2ccc(OCCN)c(c2)-c2cc1ccc2OCCN` (racemic) [Compound 224, rac-(8S,11S,14S)-3,18-bis(2-aminoethoxy)-N-(cyanomethyl)-11-methyl-14-[methyl-[rac-(2S)-4-amino-2-[[4-methyl-2-[4-(1-methylcyclopropyl)phenyl]pyrimidine-5-carbonyl]amino]butanoyl]amino]-10,13-dioxo-9,12-diazatricyclo[13.3.1.12,6]icosa-1(18),2(20),3,5,15(19),16-hexaene-8-carboxamide], the results for the MIC in test [1] (setting [3]) and in test [2] (setting [4]) were 0.13 µM and 0.017 µM, respectively.

As to `Cc1nc(-c2ccc(S(F)(F)(F)(F)F)cc2)ncc1C(=O)N[C@@H](CCN)C(=O)N(C)[C@@H]1C(=O)N[C@@H](C)C(=O)N[C@H](C(=O)NCC#N)Cc2ccc(OCCN)c(c2)-c2cc1ccc2OCCN` (racemic) [Compound 225, rac-(8S,11S,14S)-3,18-bis(2-aminoethoxy)-N-(cyanomethyl)-11-methyl-14-[methyl-[rac-(2S)-4-amino-2-[[4-methyl-2-[4-(pentafluoro-lambda6-sulfanyl)phenyl]pyrimidine-5-carbonyl]amino]butanoyl]amino]-10,13-dioxo-9,12-diazatricyclo[13.3.1.12,6]icosa-1(18),2(20),3,5,15(19),16-hexaene-8-carboxamide], the MIC – broadly, the lowest concentration found to suppress growth – in test [1] (setting [3]) turned out to be 0.19 µM; in test [2] (setting [4]) it was 0.016 µM.

For the molecule `CCCC#Cc1ccc(-c2ncc(C(=O)N[C@@H](CCN)C(=O)N(C)[C@@H]3C(=O)N[C@@H](C)C(=O)N[C@H](C(=O)NCC#N)Cc4ccc(OCCN)c(c4)-c4cc3ccc4OCCN)c(C)n2)cc1` (racemic) [Compound 227, rac-(8S,11S,14S)-3,18-bis(2-aminoethoxy)-N-(cyanomethyl)-11-methyl-14-[methyl-[rac-(2S)-4-amino-2-[[4-methyl-2-(4-pent-1-ynylphenyl)pyrimidine-5-carbonyl]amino]butanoyl]amino]-10,13-dioxo-9,12-diazatricyclo[13.3.1.12,6]icosa-1(18),2(20),3,5,15(19),16-hexaene-8-carboxamide], the figures for the minimum inhibitory concentration (MIC) in test [1] (setting [3]) and in test [2] (setting [4]) were 0.077 µM and 0.017 µM, respectively.

As to `Cc1nc(C#CC(C)C)ncc1C(=O)N[C@@H](CCN)C(=O)N(C)[C@@H]1C(=O)N[C@@H](C)C(=O)N[C@H](C(=O)NCC#N)Cc2ccc(OCCN)c(c2)-c2cc1ccc2OCCN` (racemic) [Compound 229, rac-(8S,11S,14S)-3,18-bis(2-aminoethoxy)-N-(cyanomethyl)-11-methyl-14-[methyl-[rac-(2S)-4-amino-2-[[4-methyl-2-(3-methylbut-l-ynyl)pyrimidine-5-carbonyl]amino]butanoyl]amino]-10,13-dioxo-9,12-diazatricyclo[13.3.1.12,6]icosa-1(18),2(20),3,5,15(19),16-hexaene-8-carboxamide], the values for the minimal inhibitory concentration (MIC) in test [1] (22 hours) and in test [2] were 4.6 µM and 0.57 µM, respectively.

With `Cc1nc(-c2ccc(C3CCCC3)cc2)ncc1C(=O)N[C@@H](CCN)C(=O)N(C)[C@@H]1C(=O)N[C@@H](C)C(=O)N[C@H](C(=O)NCC#N)Cc2ccc(OCCN)c(c2)-c2cc1ccc2OCCN` (racemic) [Compound 230, rac-(8S,11S,14S)-3,18-bis(2-aminoethoxy)-N-(cyanomethyl)-11-methyl-14-[methyl-[rac-(2S)-4-amino-2-[[2-(4-cyclopentylphenyl)-4-methyl-pyrimidine-5-carbonyl]amino]butanoyl]amino]-10,13-dioxo-9,12-diazatricyclo[13.3.1.12,6]icosa-1(18),2(20),3,5,15(19),16-hexaene-8-carboxamide], the MIC in test [1] (setting [3]) came to 0.066 µM; in test [2] (setting [4]), 0.012 µM.

Take `Cc1nc(-c2ccc(C3CCOCC3)cc2)ncc1C(=O)N[C@@H](CCN)C(=O)N(C)[C@@H]1C(=O)N[C@@H](C)C(=O)N[C@H](C(=O)NCC#N)Cc2ccc(OCCN)c(c2)-c2cc1ccc2OCCN` (racemic) [Compound 231, rac-(8S,11S,14S)-3,18-bis(2-aminoethoxy)-N-(cyanomethyl)-11-methyl-14-[methyl-[rac-(2S)-4-amino-2-[[4-methyl-2-(4-tetrahydropyran-4-ylphenyl)pyrimidine-5-carbonyl]amino]butanoyl]amino]-10,13-dioxo-9,12-diazatricyclo[13.3.1.12,6]icosa-1(18),2(20),3,5,15(19),16-hexaene-8-carboxamide]: the minimal inhibitory concentration (MIC) in test [1] (setting [3]) was determined as 1.4 µM; in test [2] (setting [4]) it was 0.35 µM.

As for `Cc1nc(-c2cnc(-c3ccc(C(C)(C)C)cc3)nc2)ncc1C(=O)N[C@@H](CCN)C(=O)N(C)[C@@H]1C(=O)N[C@@H](C)C(=O)N[C@H](C(=O)NCC#N)Cc2ccc(OCCN)c(c2)-c2cc1ccc2OCCN` (racemic) [Compound 232, rac-(8S,11S,14S)-3,18-bis(2-aminoethoxy)-N-(cyanomethyl)-11-methyl-14-[methyl-[rac-(2S)-4-amino-2-[[2-[2-(4-tert-butylphenyl)pyrimidin-5-yl]-4-methyl-pyrimidine-5-carbonyl]amino]butanoyl]amino]-10,13-dioxo-9,12-diazatricyclo[13.3.1.12,6]icosa-1(18),2(20),3,5,15(19),16-hexaene-8-carboxamide], the minimal inhibitory concentration (MIC) in test [1] (setting [3]) worked out at 0.16 µM; in test [2] (setting [4]) it was 0.015 µM.

As to `Cc1nc(-c2ccc(C3CCCCC3)cc2)ncc1C(=O)N[C@@H](CCN)C(=O)N(C)[C@@H]1C(=O)N[C@@H](C)C(=O)N[C@H](C(=O)NCC#N)Cc2ccc(OCCN)c(c2)-c2cc1ccc2OCCN` (racemic) [Compound 233, rac-(8S,11S,14S)-3,18-bis(2-aminoethoxy)-N-(cyanomethyl)-11-methyl-14-[methyl-[rac-(2S)-4-amino-2-[[2-(4-cyclohexylphenyl)-4-methyl-pyrimidine-5-carbonyl]amino]butanoyl]amino]-10,13-dioxo-9,12-diazatricyclo[13.3.1.12,6]icosa-1(18),2(20),3,5,15(19),16-hexaene-8-carboxamide], the minimum inhibitory concentration (MIC) in test [1] (setting [3]) is 0.13 µM; in test [2] (setting [4]), 0.016 µM.

Take `Cc1nc(-c2ccc3c(c2)CCC3(C)C)ncc1C(=O)N[C@@H](CCN)C(=O)N(C)[C@@H]1C(=O)N[C@@H](C)C(=O)N[C@H](C(=O)NCC#N)Cc2ccc(OCCN)c(c2)-c2cc1ccc2OCCN` (racemic) [Compound 234, rac-(8S,11S,14S)-3,18-bis(2-aminoethoxy)-N-(cyanomethyl)-11-methyl-14-[methyl-[rac-(2S)-4-amino-2-[[2-(1,1-dimethylindan-5-yl)-4-methyl-pyrimidine-5-carbonyl]amino]butanoyl]amino]-10,13-dioxo-9,12-diazatricyclo[13.3.1.12,6]icosa-1(18),2(20),3,5,15(19),16-hexaene-8-carboxamide]: the MIC in test [1] (setting [3]) is 0.066 µM; in test [2] (setting [4]), 0.0082 µM.

`CCCCc1ccc(-c2ncc(C(=O)N[C@@H](CCN)C(=O)N(C)[C@@H]3C(=O)N[C@@H](C)C(=O)N[C@H](C(=O)NCC#N)Cc4ccc(OCCN)c(c4)-c4cc3ccc4OCCN)c(C)n2)c(Cl)c1` (racemic) [Compound 235, rac-(8S,11S,14S)-3,18-bis(2-aminoethoxy)-N-(cyanomethyl)-11-methyl-14-[methyl-[rac-(2S)-4-amino-2-[[2-(4-butyl-2-chloro-phenyl)-4-methyl-pyrimidine-5-carbonyl]amino]butanoyl]amino]-10,13-dioxo-9,12-diazatricyclo[13.3.1.12,6]icosa-1(18),2(20),3,5,15(19),16-hexaene-8-carboxamide]: the MIC in test [1] (setting [3]) came to 0.26 µM; in test [2] (setting [4]), 0.016 µM.
